For eleven compounds, T/C results are on record in PubChem BioAssay AID256 (DTP/NCI, 2004).

For this test, the system named is CD2F1 mice, L1210 leukemia ip, survival T/C. Description: NCI In Vivo Anticancer Drug Screen. Data for tumor model L1210 Leukemia (intraperitoneal) in CD2F1 (CDF1) mice. The settings on record: higher = longer survival. The gist of the method: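 Each value reflects a quotient of treated over vehicle control outcomes in mice with a transplanted tumor.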
The mark [1] stands for this setting: endpoint: mean survival time, dose: 100.0 mg/kg/injection, schedule: Q04DX003 (ip), vehicle: saline.
Where [2] appears, read: endpoint: mean survival time, dose: 200.0 mg/kg/injection, schedule: Q04DX003 (ip), vehicle: saline.

Where “and” joins values, the source holds several entries; their conditions need not be identical. Equal values may be shown once. Inconclusive results and toxic doses are left out.

For `O=c1n(CC2CO2)c(=O)n(CC2CO2)n1CC1CO1` (stereo not drawn), the T/C is 113 % of control (endpoint: median survival time, dose: 1.5 mg/kg/injection, schedule: Q01DX009 (ip), vehicle: saline); 121 % of control (endpoint: median survival time, dose: 1.5 mg/kg/injection, schedule: Q03HX024 (ip), vehicle: saline); 195 % of control (endpoint: median survival time, dose: 3.0 mg/kg/injection, schedule: Q03HX024 (ip), vehicle: saline); 182 % of control (endpoint: median survival time, dose: 6.0 mg/kg/injection, schedule: Q01DX009 (ip), vehicle: saline); 253 % of control (endpoint: median survival time, dose: 6.0 mg/kg/injection, schedule: Q03HX024 (ip), vehicle: saline); 168 % of control and 277 % of control (endpoint: median survival time, dose: 6.25 mg/kg/injection, schedule: Q01DX009 (ip), vehicle: saline). In addition, the T/C (endpoint: median survival time, dose: 7.5 mg/kg/injection, schedule: Q01DX003 (iv), vehicle: saline) was 107 % of control; the T/C (endpoint: median survival time, dose: 7.5 mg/kg/injection, schedule: Q01DX005 (ip), vehicle: saline) was 151 % of control; the T/C (endpoint: median survival time, dose: 10.0 mg/kg/injection, schedule: Q01DX005 (ip), vehicle: saline) was 192 % of control; the T/C (endpoint: median survival time, dose: 12.0 mg/kg/injection, schedule: Q01DX009 (ip), vehicle: saline) was 365 % of control; the T/C (endpoint: median survival time, dose: 12.0 mg/kg/injection, schedule: Q03HX008 (ip), vehicle: saline) was 86 % of control; the T/C (endpoint: median survival time, dose: 12.0 mg/kg/injection, schedule: Q03HX024 (ip), vehicle: saline) was 106 % of control. Further, the T/C (endpoint: median survival time, dose: 12.5 mg/kg/injection, schedule: Q01DX009 (ip), vehicle: saline) was 231 % of control and 277 % of control; the T/C (endpoint: median survival time, dose: 15.0 mg/kg/injection, schedule: Q01DX005 (ip), vehicle: saline) is 210 % of control and 240 % of control; the T/C (endpoint: median survival time, dose: 15.0 mg/kg/injection, schedule: Q04DX003 (ip), vehicle: saline) is 182 % of control; the T/C (endpoint: median survival time, dose: 15.0 mg/kg/injection, schedule: Q08DX002 (ip), vehicle: saline) was 159 % of control; the T/C (endpoint: median survival time, dose: 24.0 mg/kg/injection, schedule: Q01DX009 (ip), vehicle: saline) is 365 % of control; the T/C (endpoint: median survival time, dose: 25.0 mg/kg/injection, schedule: Q01DX001 (iv), vehicle: saline) was 120 % of control. In addition, the T/C (endpoint: median survival time, dose: 25.0 mg/kg/injection, schedule: Q01DX009 (ip), vehicle: saline) was 121 % of control and 277 % of control; the T/C (endpoint: median survival time, dose: 30.0 mg/kg/injection, schedule: Q01DX001 (ip), vehicle: saline) is 195 % of control; the T/C (endpoint: median survival time, dose: 30.0 mg/kg/injection, schedule: Q01DX003 (iv), vehicle: saline) is 171 % of control; the T/C (endpoint: median survival time, dose: 30.0 mg/kg/injection, schedule: Q01DX005 (ip), vehicle: saline) is 92 % of control; the T/C (endpoint: median survival time, dose: 30.0 mg/kg/injection, schedule: Q04DX003 (ip), vehicle: saline) is 731 % of control; the T/C (endpoint: median survival time, dose: 30.0 mg/kg/injection, schedule: Q08DX002 (ip), vehicle: saline) is 198 % of control. For the same compound, the T/C is 186 % of control (endpoint: median survival time, dose: 40.0 mg/kg/injection, schedule: Q01DX001 (ip), vehicle: saline); 292 % of control (endpoint: median survival time, dose: 40.0 mg/kg/injection, schedule: Q04DX003 (ip), vehicle: saline); 256 % of control (endpoint: median survival time, dose: 40.0 mg/kg/injection, schedule: Q08DX002 (ip), vehicle: saline); 106 % of control (endpoint: median survival time, dose: 48.0 mg/kg/injection, schedule: Q01DX009 (ip), vehicle: saline); 157 % of control (endpoint: median survival time, dose: 50.0 mg/kg/injection, schedule: Q01DX001 (iv), vehicle: saline); 731 % of control (endpoint: median survival time, dose: 50.0 mg/kg/injection, schedule: Q08DX002 (ip), vehicle: saline). Moreover, the T/C reads like this: (endpoint: median survival time, dose: 60.0 mg/kg/injection, schedule: Q01DX001 (ip), vehicle: saline) 731 % of control; (endpoint: median survival time, dose: 60.0 mg/kg/injection, schedule: Q01DX005 (oral), vehicle: saline) 182 % of control; (endpoint: median survival time, dose: 80.0 mg/kg/injection, schedule: Q01DX001 (ip), vehicle: saline) 97 % of control; (endpoint: median survival time, dose: 80.0 mg/kg/injection, schedule: Q01DX001 (iv), vehicle: saline) 89 % of control; (endpoint: median survival time, dose: 160.0 mg/kg/injection, schedule: Q01DX001 (oral), vehicle: saline) 175 % of control; (endpoint: median survival time, dose: 240.0 mg/kg/injection, schedule: Q01DX001 (oral), vehicle: saline) 97 % of control.

For the compound `NC(=O)c1[nH]cnc1O`, the T/C is, setting by setting: (endpoint: median survival time, dose: 25.0 mg/kg/injection, schedule: Q01DX005 (ip), vehicle: saline with Tween-80) 109 % of control and 110 % of control; (endpoint: median survival time, dose: 50.0 mg/kg/injection, schedule: Q01DX005 (ip), vehicle: saline with Tween-80) 113 % of control and 112 % of control; (endpoint: median survival time, dose: 100.0 mg/kg/injection, schedule: Q01DX005 (ip), vehicle: saline with Tween-80) 116 % of control and 119 % of control; (endpoint: median survival time, dose: 144.0 mg/kg/injection, schedule: Q01DX005 (ip), vehicle: saline with Tween-80) 117 % of control; (endpoint: median survival time, dose: 200.0 mg/kg/injection, schedule: Q01DX005 (ip), vehicle: saline with Tween-80) 118 % of control and 120 % of control; (endpoint: median survival time, dose: 400.0 mg/kg/injection, schedule: Q01DX005 (ip), vehicle: saline with Tween-80) 120 % of control.

For the compound `Cc1cccc(NC(=O)Nc2ccc(Oc3ccccc3Cl)c(S(=O)(=O)O)c2)c1`, the T/C reads like this: (endpoint: mean survival time, dose: 50.0 mg/kg/injection, schedule: Q01DX009 (ip), vehicle: saline) 101 % of control; (endpoint: mean survival time, dose: 100.0 mg/kg/injection, schedule: Q01DX009 (ip), vehicle: saline) 95 % of control; under setting [1], 95 % of control; under setting [2], 95 % of control.

On to `CC1=C(c2ccccc2)C(=O)OC1=O`, for which the T/C is 98 % of control (endpoint: mean survival time, dose: 100.0 mg/kg/injection, schedule: Q04DX002 (ip), vehicle: other); 103 % of control (endpoint: mean survival time, dose: 200.0 mg/kg/injection, schedule: Q04DX002 (ip), vehicle: other); 107 % of control (endpoint: mean survival time, dose: 400.0 mg/kg/injection, schedule: Q04DX002 (ip), vehicle: other).

As for `OCCC1=CCCCC1`, the T/C by setting is: (endpoint: mean survival time, dose: 100.0 mg/kg/injection, schedule: Q01DX009 (ip), vehicle: saline with Tween-80) 91 % of control; (endpoint: mean survival time, dose: 200.0 mg/kg/injection, schedule: Q01DX009 (ip), vehicle: saline with Tween-80) 97 % of control; (endpoint: mean survival time, dose: 400.0 mg/kg/injection, schedule: Q01DX009 (ip), vehicle: saline with Tween-80) 98 % of control.

In the case of `OCCN=Cc1c(Cl)ccc(Cl)c1Cl`, the T/C runs as follows: under setting [1], 108 % of control; under setting [2], 101 % of control; (endpoint: mean survival time, dose: 400.0 mg/kg/injection, schedule: Q04DX003 (ip), vehicle: saline) 104 % of control.

With `O=C1C2C3SC(c4nc5ccccc5cc43)C2C(=O)N1c1ccccc1` (stereo not drawn), the T/C is 92 % of control (endpoint: mean survival time, dose: 25.0 mg/kg/injection, schedule: Q01DX001 (ip), vehicle: saline with Tween-80) and 92 % of control (endpoint: mean survival time, dose: 50.0 mg/kg/injection, schedule: Q01DX001 (ip), vehicle: saline with Tween-80).

As to `Cc1cc2oc(=O)c(Cl)c(NCCO)c2c(C)c1Cl`, the T/C is 98 % of control (endpoint: mean survival time, dose: 100.0 mg/kg/injection, schedule: Q01DX001 (ip), vehicle: saline with Tween-80); 98 % of control (endpoint: mean survival time, dose: 200.0 mg/kg/injection, schedule: Q01DX001 (ip), vehicle: saline with Tween-80); 93 % of control (endpoint: mean survival time, dose: 400.0 mg/kg/injection, schedule: Q01DX001 (ip), vehicle: saline with Tween-80).

As for `Cc1ccc(N)c(N)c1`, the T/C (endpoint: median survival time, dose: 25.0 mg/kg/injection, schedule: Q01DX009 (ip), vehicle: saline with Tween-80) was 98 % of control; the T/C (endpoint: median survival time, dose: 50.0 mg/kg/injection, schedule: Q01DX009 (ip), vehicle: saline with Tween-80) was 98 % of control; the T/C (endpoint: median survival time, dose: 100.0 mg/kg/injection, schedule: Q01DX009 (ip), vehicle: saline with Tween-80) is 96 % of control.

With `CCCCCC/C(C)=C(\C)c1cc(OC)cc(OC)c1`, the T/C is, setting by setting: (endpoint: mean survival time, dose: 100.0 mg/kg/injection, schedule: Q04DX003 (ip), vehicle: saline with Tween-80) 96 % of control; (endpoint: mean survival time, dose: 200.0 mg/kg/injection, schedule: Q04DX003 (ip), vehicle: saline with Tween-80) 100 % of control.

As for `C=CC(=C)CCC=C(C)C`, the T/C (endpoint: mean survival time, dose: 50.0 mg/kg/injection, schedule: Q01DX009 (ip), vehicle: acetone) was 96 % of control; the T/C (endpoint: mean survival time, dose: 100.0 mg/kg/injection, schedule: Q01DX009 (ip), vehicle: acetone) was 91 % of control; the T/C (endpoint: mean survival time, dose: 200.0 mg/kg/injection, schedule: Q01DX009 (ip), vehicle: acetone) is 96 % of control.
